The values below come from ChEMBL document CHEMBL3046491, “cis-Configuration: a new tactic/rationale for neonicotinoid molecular design” (2011).

Format in all cases: functional
The test system of test [1] is Nilaparvata lugens. Kind of test: Ratio of imidacloprid LC50 to compound LC50 for imidacloprid-resistant Nilaparvata lugens (brown planthopper).
For test [2], the system named is Aphis craccivora. Nature of the test: Insecticidal activity against Aphis craccivora (cowpea aphid) assessed as mortality at 500 mg/L.
Test [3] concerns Nilaparvata lugens. Kind of test: Insecticidal activity against imidacloprid-sensitive Nilaparvata lugens (brown planthopper) assessed as drug concentration required to induce mortality per pest.
The subject of test [4] is Nilaparvata lugens. Nature of the test: Insecticidal activity against imidacloprid-resistant Nilaparvata lugens (brown planthopper) assessed as drug concentration required to induce mortality per pest.
In test [5] the test system is Aphis craccivora. Kind of test: Insecticidal activity against Aphis craccivora (cowpea aphid) assessed as mortality.

Molecules are shown by their SMILES.

Turning to `O=[N+]([O-])C1=C2N(Cc3ccc(Cl)nc3)CCN2[C@H](c2ccco2)[C@@](C2=NCCN2Cc2ccc(Cl)nc2)([N+](=O)[O-])[C@@H]1c1ccco1`, in the test on Nilaparvata lugens [1], the RatioLC50 is reported as 10.
For `CCCN1CC([N+](=O)[O-])=C2N(CC3COCO3)CCN2C1` (centres undefined), the mortality at 500 µg/mL in the test with Aphis craccivora [2] is 0%.
On the same count and under the same terms, next, `CN1CC([N+](=O)[O-])=C2N(Cc3ccc(Cl)nc3)C[C@H]3CCC[C@H]3N2C1`: 30%; `CCCCN1CC([N+](=O)[O-])=C2N(Cc3ccc(Cl)nc3)C[C@H]3CCC[C@H]3N2C1` (relative stereo): 30%.
In the case of `O=[N+]([O-])C1=C2N(Cc3ccc(Cl)nc3)CCN2[C@@H]2CC[C@H]1O2`, the LC50 in the test with Nilaparvata lugens [3] stood at 0.0742 ng; in the test with Nilaparvata lugens [4], 0.4925 ng. Besides, in the test on Nilaparvata lugens [1], the RatioLC50 is on record as 50.
As for `CCCCN1CC([N+](=O)[O-])=C2N(CC3COCO3)CCN2C1` (centres undefined), the mortality at 500 µg/mL in the test on Aphis craccivora [2] is 0%.
The same measure, in the same setting: the value for `CC(C)N1CC([N+](=O)[O-])=C2N(CC3COCO3)CCN2C1` (centres undefined) was 0%.
The same measure, in the same setting: next, `CCCN1CC([N+](=O)[O-])=C2N(Cc3ccc(Cl)nc3)C[C@H]3CCC[C@H]3N2C1` (relative stereo): 30%; `CCN1CC([N+](=O)[O-])=C2N(Cc3ccc(Cl)nc3)C[C@H]3CCC[C@H]3N2C1` (relative stereo): 30%; `CC(C)N1CC([N+](=O)[O-])=C2N(Cc3ccc(Cl)nc3)C[C@H]3CCC[C@H]3N2C1` (relative stereo): 30%.
On the same count and under the same terms, next, `O=[N+]([O-])C1=C2N(Cc3ccc(Cl)nc3)C[C@H]3CCC[C@H]3N2CN(CCO)C1` (relative stereo): 30%; `O=[N+]([O-])C1=C2N(CC3COCO3)CCN2CN(CCO)C1` (centres undefined): 0%.
Take `O=[N+]([O-])/N=C1\NCCN1Cc1ccc(Cl)nc1` [IMIDACLOPRID]: the values for the LC50 in the test with Aphis craccivora [5] and in the test with Nilaparvata lugens [4] were 31 µM and 22.1614 ng, respectively.
As to `CN1CC([N+](=O)[O-])=C2N(CC3COCO3)CCN2C1` (centres undefined), the mortality at 500 µg/mL in the test on Aphis craccivora [2] was determined as 0%.
`Cl.O=[N+]([O-])/C(=C\c1ccco1)C1=NCCN1Cc1ccc(Cl)nc1`: the RatioLC50 in the test on Nilaparvata lugens [1] worked out at 30. Besides, the LC50 in the test on Nilaparvata lugens [4] was determined as 0.7312 ng.
`CCN1CC([N+](=O)[O-])=C2N(CC3COCO3)CCN2C1` (centres undefined): the mortality at 500 µg/mL in the test with Aphis craccivora [2] stood at 0%.
On to `O=[N+]([O-])C1=C2N(Cc3ccc(Cl)nc3)CCN2[C@H]2CCC[C@@H]1O2`, for which the LC50 in the test on Nilaparvata lugens [3] amounted to 4.144 ng; in the test on Nilaparvata lugens [4], 18.9795 ng. In addition, the mortality at 500 µg/mL with Aphis craccivora [2] came to 87%.
In the case of `O=[N+]([O-])C1=C2N(Cc3ccc(Cl)nc3)CCN2[C@H](c2ccco2)[C@@](C2=NCCN2Cc2ccc(Cl)nc2)([N+](=O)[O-])[C@H]1c1ccco1`, the mortality at 500 µg/mL in the test on Aphis craccivora [2] is 87%.

Broadly, the mortality is the percentage killed.
